Consider 1 substance from patent US20220403326A1, “MEDIA FORMULATIONS AND METHODS FOR PRODUCING PROGENITOR T CELLS” (priority 2019, published 2022).

Holding throughout (type): cell-based, human
Assay [1] deals with CD34+ HSPCs. Briefly: Surface expression of CD117, CD123 and CD127 after 24 hours of TNFα stimulation. The conditions noted are these: TNFα stimulation for 24 hours. The method, then: Prior to analysis via flow cytometry, adherent cells were collected from DL4+VCAM-1 surfaces using vigorous pipetting or TrypLE Express Enzyme (ThermoFisher) for 5 minutes at 37° C. Afterwards, cells were rinsed twice with Hanks Balanced Salt Solution (ThermoFisher) plus 2% FBS (HF). Surface antibodies were stained at 1:100-1:300 in HF at room temperature for 15 minutes. Cells were then rinsed once with HF and resuspended in HF with 1:1000 7-AAD to exclude dead cells. Data was acquired with a BD Fortessa™ and compensation and gating was performed with FlowJo™ software and further analysis with the R programming language (version 3.3.2).
Next, the expression of CD117 (c-kit; SCF receptor), CD123 (IL-3 receptor) and CD127 (IL-7 receptor) on CD34+ HSPCs was evaluated in the presence or absence of TNFα stimulation for 24 hours.

For assay [2], the system named is CD34+ HSPCs. Briefly: γ-secretase inhibitor (GSI) titration, 14-day culture on DL4+VCAM-1. The conditions noted are these: increasing concentrations of GSI; 14 days. How it is done: For experiments 7 days or longer, HSPCs were seeded at 63-125 cells/mm^2 (equivalent to 2000-4000 cells/well of a 96-well plate) on DL4+VCAM-1-coated surfaces. Experiments shorter than 7 days (CFSE and qPCR) were seeded at 470-780 cells/mm^2 (equivalent to 15,000-25,000 cells/well of a 96-well plate) to provide enough cells for analysis. Cells were cultured in 100 μl/well (32 μl/well for 384-well plate) of Iscove's Modified Eagle Medium (IMDM) supplemented with 20% bovine serum albumin, insulin, and transferrin (BIT 9500) serum substitute (Stemcell Technologies), 1 μg/ml low-density lipoprotein (LDL; Stemcell Technologies), 60 μM ascorbic acid (Sigma), 24 μM 2-mercaptoethanol (Sigma), and 1% penicillin-streptomycin (P/S; Invitrogen). The cytokines used in control condition were SCF, FLT3L, TPO, and IL-7 (also known as the “4F cytokines”, all of which were obtained from R&D Systems), each at a concentration of 20 ng/ml or 100 ng/ml as indicated in the text. All other cytokines were purchased from R&D Systems and used in the combinations and concentrations indicated in the text. For certain experiments, the γ-secretase inhibitor (2S)-N-[(3,5-Difluorophenyl)acetyl]-L-alanyl-2-phenyl] glycine 1,1-dimethylethyl ester (DAPT) or dimethyl sulfoxide (DMSO) was added to media at the concentrations indicated in the text. […]

Assay [3] has as its system HSPCs. Briefly: DL4 coating concentration titration, 14-day culture, with or without TNFα. The conditions noted are these: lowest DL4 concentration tested; 14 days; with VCAM-1. The method, then:
Tissue culture 96-well plates were coated with DL4-Fc and VCAM-1-Fc (R&D Systems) overnight at 4° C. or for 3-4 hours at room temperature. To coat, DL4 and VCAM-1 were diluted to 15 μg/ml and 2.5 μg/ml, respectively, in 50 μl of phosphate-buffered saline (PBS), resulting in a coating concentration of approximately 24 ng/mm2 of DL4-Fc and 4 ng/mm2 of VCAM-1-Fc. For titration experiments, the concentration of DL4 or VCAM-1 was adjusted accordingly while maintaining a 50 μl volume of PBS. Experiments using 384-well plates scaled were coated similarly but with 16 μl of PBS. Wells were washed once with PBS prior to seeding cells to remove unbound DL4-Fc protein that inhibits Notch signaling.^6
In parallel with the Notch pathway inhibition experiment described above, HSPCs were also seeded on DL4+VCAM-1 for 14 days with decreasing concentrations of DL4 (FIG. 4d). […] Representative flow cytometry plots showing differential proT cell induction with decreasing DL4 concentration in the presence or absence of TNFα are shown in FIG. 4f.

The subject of assay [4] is HSPCs. Briefly: CFSE proliferation assay of HSPCs on DL4+VCAM-1. How it is done: To track the number of cell divisions, cells were stained with 2.5 μM CellTrace™ CFSE (ThermoFisher) in PBS and incubated at 37° C. for 8 minutes. CFSE was quenched by adding 5 times the volume of IMDM+BIT and incubating at 37° C. for 5 minutes. Cells were then resuspended in fresh media and seeded on DL4+VCAM-1 for culture. For analysis, cells were collected and stained for CD34, CD7, and CD5 surface markers as described above and analyzed using flow cytometry. Proliferation was modelled using FlowJo™ software and further analysis was performed with R.
To track the number of cell divisions in response to each of IL-3 and TNFα, the HSPCs were first stained with carboxyfluorescein succinimidyl ester (CFSE). IL-3 or TNFα were added on day 0 and the number of divisions of each cell was analyzed on days 2, 3, 4 and 5.

The test system of assay [5] is Notch target genes in CD34+ HSPCs (CD38lo/− and CD38+ fractions). Briefly: qRT-PCR of Notch target and pro-myeloid genes after 5 days of culture. From the text:
Umbilical cord blood (UCB) was collected from consenting donors at Mount Sinai Hospital, Toronto, Ontario, in accordance with institutional research ethics board policies. Mononuclear cells were fractioned via centrifugation using Lympholyte cell separation media (Cedarlane) and red blood cells were lysed using ammonium-chloride-potassium (ACK) lysing buffer prepared in-house. Mononuclear cells were enriched for >90% CD34+ cells using EasySep™ Human CD34+ Positive Selection Kit (Stemcell Technologies) according to the manufacturer's instructions. For certain experiments, enriched CD34+ cells were stained with CD34-APC and CD38-PE antibodies and sorted into CD34+CD38lo/− and CD34+CD38+ fractions using FACS Aria flow cytometer ([…]).
Cells were lysed and RNA isolated using the PureLink™ RNA Micro Kit (Invitrogen) according to the manufacturer's protocol. cDNA was reverse-transcribed from RNA using SuperScript™ III Reverse Transcriptase (Invitrogen) according to the manufacturer's protocol. cDNA was amplified with primers and FastStart SYBR Green Mastermix (Roche) using QuantStudio™ 6 Flex (Applied Biosystems). Relative expression of individual genes was calculated by the delta cycle threshold (ΔCt) method and normalization using β-actin to control for differences in input cDNA.
TNFα activates the NF-KB pathway, which may regulate Notch target genes or regulate Notch itself (FIG. 3a). To investigate if and how TNFα interacts with Notch, CD34+ HSPCs were first sorted into CD38lo/− and CD38+ fractions, and seeded separately on DL4+VCAM-1 with and without TNFα. Gene expression was measured using qPCR after 5 days of culture (FIG. 3b).
In general terms: Real-time PCR tracks product formation cycle by cycle.

Setting [6] is: both CD38lo/− and CD38+ fractions, normalized to β-actin.

Turning to TNFα, in the assay on CD34+ HSPCs [1], the “frequency of CD123+ cells” value is “significant increase” and the “median fluorescent intensity (MFI) of CD123” value was “increase in the median fluorescent intensity”. In the assay with CD34+ HSPCs [2], the “CD7+CD5+ proT cell generation under Notch inhibition” value is “capable of maintaining CD7+CD5+ proT cell generation with a higher concentration of GSI than the control condition”. Moreover, in the assay with HSPCs [3], the “DL4 coating concentration down to which CD7+CD5+ proT cell development is maintained” value is recorded as not above 2 ng/mm^2. The “proportion of proT2 (CD34+CD7+CD5+) cells” value in the assay with HSPCs [4] (day 5) was “higher proportion of proT2 cells”. In addition, the “upregulation of CD7” value in the assay with HSPCs [4] (days 2-5) is listed as “slow to upregulate CD7”. Further, the “expression of any other Notch target genes or NOTCH1 itself” value in assay [5] was “No significant differences”. Further, in assay [5] (CD38lo/− but not CD38+ HSPCs), the SPI1 expression entry is listed as “downregulated SPI1 slightly”. Besides, in assay [5] (setting [6]), the GATA3 expression entry was “upregulated” and the TCF7 expression entry was “upregulated”. The BCL11b expression entry in assay [5] (only CD38lo/− HSPCs) is on record as “upregulated”. Moreover, the CEBPA expression result in assay [5] (only the CD38+ fraction) was “significantly downregulated”.
